# Counter-ions that a name gives are not always drawn. Like-named read-outs stand apart in the source and are kept apart here.
# Assays:
# H460 cells = test: Dasatinib-resistant cell growth inhibition (MTT), H460; type: cell-based; conditions: Homo sapiens, NCI-H460, 8.0×10^3 cells/well, 1.5% FBS, 78 Hr
# Procedure: The OD570 was measured using microplate reader. Growth inhibition curves and EC50/IC50 were determined using GraphPad Prism 4 statistical software. Data was normalized to represent percent of maximum response.
# Jurkat cells = test: Leukemia cell growth inhibition, Jurkat; type: cell-based; conditions: Homo sapiens; Jurkat (Adult T cell leukemia)
# [1] = tested on: HT29 (human colon cancer) xenograft; test: Oral potency in staged HT29 mouse xenografts; conditions: 25 mg/kg bid; at day 5 dose lowered to 15 mg/kg bid
# Lck(h) = Lck(h) (Homo sapiens, UniProt P06239); test: Isolated kinase activity, Lck; type: biochemical; conditions: @ 10 μM
# isolated Src = isolated Src (Homo sapiens, UniProt P12931); test: Titration against isolated Src; type: biochemical
# IR(h) = IR(h) (Homo sapiens, UniProt P06213); test: Isolated kinase activity, IR; type: biochemical; conditions: @ 10 μM
# FGFR2(h) = FGFR2(h) (Homo sapiens, UniProt P21802); test: Isolated kinase activity, FGFR2; type: biochemical; conditions: @ 10 μM
# FGFR2(h), sequence (P21802 22-821): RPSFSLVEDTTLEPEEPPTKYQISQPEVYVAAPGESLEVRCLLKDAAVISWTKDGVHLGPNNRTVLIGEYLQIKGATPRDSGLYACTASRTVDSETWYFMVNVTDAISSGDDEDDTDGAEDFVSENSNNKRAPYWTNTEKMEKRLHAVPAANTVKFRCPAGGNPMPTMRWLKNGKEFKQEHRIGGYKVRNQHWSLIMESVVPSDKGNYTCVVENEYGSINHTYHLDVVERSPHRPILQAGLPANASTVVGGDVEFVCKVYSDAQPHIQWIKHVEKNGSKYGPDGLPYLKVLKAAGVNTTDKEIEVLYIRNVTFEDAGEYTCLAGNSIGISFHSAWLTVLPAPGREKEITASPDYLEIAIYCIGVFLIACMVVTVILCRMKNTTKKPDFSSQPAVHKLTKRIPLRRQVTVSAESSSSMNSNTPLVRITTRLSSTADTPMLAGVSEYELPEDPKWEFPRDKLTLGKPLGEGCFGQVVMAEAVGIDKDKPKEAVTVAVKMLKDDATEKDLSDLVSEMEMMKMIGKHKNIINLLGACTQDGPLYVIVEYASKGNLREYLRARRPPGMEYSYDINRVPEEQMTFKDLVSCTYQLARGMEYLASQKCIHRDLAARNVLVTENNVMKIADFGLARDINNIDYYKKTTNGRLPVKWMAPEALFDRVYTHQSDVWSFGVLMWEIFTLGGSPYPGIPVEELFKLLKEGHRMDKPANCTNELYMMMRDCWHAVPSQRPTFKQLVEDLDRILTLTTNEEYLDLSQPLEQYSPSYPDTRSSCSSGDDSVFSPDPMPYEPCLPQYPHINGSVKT
# FAK Y397 = test: FAK autophosphorylation in whole cells; type: cell-based; conditions: c-Src527F/NIH3T3 cells
# Procedure: (§1) AZ28 serves as a positive comparator to show what a validated Src inhibitor should do in these assays. After treatment with compound, cells were lysed, subjected to PAGE and probed with a battery of antibodies. […] In addition, off-target protein phosphorylation was also investigated. Further, induction of apoptosis was evaluated via Caspase 3 cleavage. Multiple doses of each compound were tested because the trends in response to increasing drug concentration are the most reliable indicator of activity.
# FAK Y397 is mainly a FAK autophosphorylation site and only a poor Src transphorylation site. AZ28 is not a potent FAK inhibitor (see isolated enzyme data in Example 8).
# Abl(h) = Abl(h) (Homo sapiens, UniProt P00519); test: Isolated kinase activity, Abl; type: biochemical; conditions: @ 10 μM
# IGF-1R(h) = IGF-1R(h) (Homo sapiens, UniProt P08069); test: Isolated kinase activity, IGF-1R; type: biochemical; conditions: @ 10 μM
# IGF-1R(h), sequence (P08069 31-1367): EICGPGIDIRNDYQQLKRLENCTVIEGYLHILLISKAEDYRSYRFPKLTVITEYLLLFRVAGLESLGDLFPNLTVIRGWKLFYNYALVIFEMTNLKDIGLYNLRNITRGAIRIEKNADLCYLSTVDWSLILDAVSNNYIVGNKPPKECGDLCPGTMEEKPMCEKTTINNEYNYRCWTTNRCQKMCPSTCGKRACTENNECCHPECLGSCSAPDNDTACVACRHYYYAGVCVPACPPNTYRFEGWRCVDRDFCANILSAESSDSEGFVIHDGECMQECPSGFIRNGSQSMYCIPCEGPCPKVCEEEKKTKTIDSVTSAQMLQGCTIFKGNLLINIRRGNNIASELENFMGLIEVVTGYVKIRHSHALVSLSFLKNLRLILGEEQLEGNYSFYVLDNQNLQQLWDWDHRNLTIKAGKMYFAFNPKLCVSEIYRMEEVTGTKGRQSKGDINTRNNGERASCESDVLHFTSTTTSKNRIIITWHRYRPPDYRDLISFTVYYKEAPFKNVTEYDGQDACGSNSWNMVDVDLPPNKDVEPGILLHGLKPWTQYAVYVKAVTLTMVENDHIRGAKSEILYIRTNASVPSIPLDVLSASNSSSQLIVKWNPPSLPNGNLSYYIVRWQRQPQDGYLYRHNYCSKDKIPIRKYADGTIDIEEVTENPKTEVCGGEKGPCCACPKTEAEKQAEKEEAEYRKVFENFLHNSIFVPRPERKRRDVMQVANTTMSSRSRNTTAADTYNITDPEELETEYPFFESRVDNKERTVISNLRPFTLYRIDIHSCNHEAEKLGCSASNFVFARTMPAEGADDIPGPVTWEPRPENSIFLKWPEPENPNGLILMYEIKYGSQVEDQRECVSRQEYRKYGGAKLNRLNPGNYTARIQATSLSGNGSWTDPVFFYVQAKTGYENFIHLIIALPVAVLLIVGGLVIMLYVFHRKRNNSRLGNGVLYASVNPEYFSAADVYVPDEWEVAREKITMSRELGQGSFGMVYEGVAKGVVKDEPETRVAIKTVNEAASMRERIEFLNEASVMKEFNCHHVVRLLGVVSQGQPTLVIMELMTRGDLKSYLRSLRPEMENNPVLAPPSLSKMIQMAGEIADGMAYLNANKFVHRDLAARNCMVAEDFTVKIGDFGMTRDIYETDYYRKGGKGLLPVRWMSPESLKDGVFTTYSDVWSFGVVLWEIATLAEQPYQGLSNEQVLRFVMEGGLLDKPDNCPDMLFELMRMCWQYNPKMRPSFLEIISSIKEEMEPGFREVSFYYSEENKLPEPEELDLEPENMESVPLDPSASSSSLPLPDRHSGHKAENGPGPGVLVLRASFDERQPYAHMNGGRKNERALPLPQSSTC
# PKCα(h) = PKCα(h) (Homo sapiens, UniProt P17252); test: Isolated kinase activity, PKCα; type: biochemical; conditions: @ 10 μM
# isolated FAK = isolated FAK (Homo sapiens, UniProt Q05397); test: Titration against isolated FAK; type: biochemical
# isolated FAK, sequence (Q05397 whole entry): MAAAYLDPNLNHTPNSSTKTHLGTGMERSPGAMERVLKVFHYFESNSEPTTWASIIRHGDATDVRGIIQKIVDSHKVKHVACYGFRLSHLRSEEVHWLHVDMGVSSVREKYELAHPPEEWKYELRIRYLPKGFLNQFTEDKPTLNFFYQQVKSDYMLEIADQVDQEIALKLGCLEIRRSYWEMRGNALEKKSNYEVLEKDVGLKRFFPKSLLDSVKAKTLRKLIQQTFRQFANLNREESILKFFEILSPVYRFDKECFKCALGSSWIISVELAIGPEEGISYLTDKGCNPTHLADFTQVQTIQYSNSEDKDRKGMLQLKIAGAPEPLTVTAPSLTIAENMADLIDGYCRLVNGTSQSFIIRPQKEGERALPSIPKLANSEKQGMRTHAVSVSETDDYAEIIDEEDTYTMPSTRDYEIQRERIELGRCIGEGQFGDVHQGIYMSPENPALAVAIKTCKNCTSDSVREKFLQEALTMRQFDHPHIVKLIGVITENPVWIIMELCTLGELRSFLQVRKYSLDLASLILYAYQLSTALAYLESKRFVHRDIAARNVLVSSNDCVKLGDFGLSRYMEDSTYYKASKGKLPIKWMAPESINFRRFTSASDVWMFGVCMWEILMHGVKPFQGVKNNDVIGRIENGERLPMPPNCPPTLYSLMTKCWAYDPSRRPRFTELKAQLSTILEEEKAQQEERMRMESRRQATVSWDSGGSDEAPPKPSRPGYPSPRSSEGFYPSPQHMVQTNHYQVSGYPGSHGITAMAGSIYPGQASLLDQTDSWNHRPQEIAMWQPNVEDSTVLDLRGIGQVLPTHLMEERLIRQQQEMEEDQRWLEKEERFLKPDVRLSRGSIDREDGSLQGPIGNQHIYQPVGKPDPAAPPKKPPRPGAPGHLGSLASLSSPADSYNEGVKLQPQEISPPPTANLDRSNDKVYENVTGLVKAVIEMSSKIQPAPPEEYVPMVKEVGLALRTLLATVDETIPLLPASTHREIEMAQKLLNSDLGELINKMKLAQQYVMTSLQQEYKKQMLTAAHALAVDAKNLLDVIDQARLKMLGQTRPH
# HT29 cell line = test: Cell growth inhibition (BrdU assay), HT29; type: cell-based, human
# Procedure: The HT29 cell line is a NCI standard human colon carcinoma cell line.
# (§2) In the BrdU Assay for cell growth inhibition, quantitation of cell proliferation was based on the measurement of BrdU incorporation during DNA synthesis. The Cell Proliferation ELISA BrdU assay kit (colorimetric) was obtained from Roche Applied Science and performed as per vendor instructions.
# (§3) The growth inhibition (GI) is determined from the formula GI=(T0−Tn×100/T0−CONn) where T0 is the BrdU growth of untreated cells at time “0”, Tn is the BrdU growth of treated cells at day “n” and CONn is the control BrdU growth of control cells at day “n”. The GI50 was extrapolated and the data plotted using XL-Fit 4.0 software.
# (§4) For 96 well culture plate experiments, c-Src 3T3 medium was supplemented with 10 mM HEPES buffer. HT-29 cells were seeded in standard tissue culture 96-well plates and c-Src 3T3 cells were seeded in 96-well plates coated with Poly-D-lysine (BIOCOAT™). To increase CO2 diffusion, c-Src 3T3 96-well plates were incubated with their lids raised by ˜2 mm using sterile rubber caps.
# (§5) Samples were reconstituted in DMSO at 20 mM and intermediate dilutions made using DMEM containing 10% FBS. […] Plates were assayed for BrdU and the data analyzed as above for GI50.
# c-Src527F/NIH3T3 cells = test: Cell growth inhibition (BrdU assay), c-Src 3T3; type: cell-based; conditions: Mus musculus
# Procedure: The cells were routinely cultured in DMEM supplemented with Fetal Bovine Serum (2.0% v/V), L-glutamine (2 mM) and Sodium Pyruvate (1 mM).
# as §2, §3, §4, §5
# Pyk2(h) = Pyk2(h) (Homo sapiens, UniProt Q14289); test: Isolated kinase activity, Pyk2; type: biochemical; conditions: @ 10 μM
# Yes(h) = Yes(h) (Homo sapiens, UniProt P07947); test: Isolated kinase activity, Yes; type: biochemical; conditions: @ 10 μM
# MAPK2(h) = MAPK2(h) (Homo sapiens, UniProt P28482); test: Isolated kinase activity, MAPK2; type: biochemical; conditions: @ 10 μM
# [2] = biological target: T1, PDGF receptor tyrosine kinase Y572/574 (Mus musculus, UniProt P26618); test: PDGF receptor autophosphorylation in whole cells; type: cell-based
# T1 construct: endogenous in cells; host or cells: c-Src527F/NIH-3T3
# Procedure: as §1
# This is thought not to be a direct Src substrate in cells.
# PI3 kinase = test: Isolated kinase activity, PI3 kinase; type: biochemical; conditions: @ 10 μM
# Lyn(h) = Lyn(h) (Homo sapiens, UniProt P07948); test: Isolated kinase activity, Lyn; type: biochemical; conditions: @ 10 μM
# Lyn(h), sequence (P07948 whole entry): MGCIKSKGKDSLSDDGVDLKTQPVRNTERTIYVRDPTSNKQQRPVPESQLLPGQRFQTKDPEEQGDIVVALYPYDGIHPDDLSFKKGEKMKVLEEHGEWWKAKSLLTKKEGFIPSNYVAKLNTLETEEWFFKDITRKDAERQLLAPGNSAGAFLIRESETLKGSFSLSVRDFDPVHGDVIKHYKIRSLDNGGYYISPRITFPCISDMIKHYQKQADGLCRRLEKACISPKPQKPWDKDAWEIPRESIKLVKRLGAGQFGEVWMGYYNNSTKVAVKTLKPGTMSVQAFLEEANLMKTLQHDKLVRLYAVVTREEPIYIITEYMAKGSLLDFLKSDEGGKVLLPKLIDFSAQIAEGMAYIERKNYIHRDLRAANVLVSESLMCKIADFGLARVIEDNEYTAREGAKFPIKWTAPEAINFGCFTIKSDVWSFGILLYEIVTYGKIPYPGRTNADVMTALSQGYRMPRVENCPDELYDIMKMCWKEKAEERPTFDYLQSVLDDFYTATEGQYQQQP
# EGFR(h) = EGFR(h) (Homo sapiens, UniProt P00533); test: Isolated kinase activity, EGFR; type: biochemical; conditions: @ 10 μM
# Caspase-3 cleavage = test: Induction of apoptosis via Caspase 3 cleavage; type: cell-based; conditions: HT29 and c-Src527F/NIH-3T3 cells
# Procedure: as §1
# Cleavage of Caspase-3 is a good measure of induction of apoptosis.
# Src = biological target: T2, Src (Homo sapiens, UniProt P12931, Y530F); test: Src kinase activity in whole cells (auto- and transphosphorylation, PAGE/antibodies); type: cell-based
# T2 construct: expressed in transfected cells; host or cells: c-Src527F/NIH-3T3 (mouse fibroblasts transfected with human c-Src Y527F); part of the results come from HT-29 (endogenous human Src)
# Procedure: as §1
# total phosphotyrosine = test: Total phosphotyrosine levels in cells; type: cell-based; conditions: HT29 and c-Src527F/NIH-3T3 cells
# Procedure: as §1
# ZAP-70(h) = ZAP-70(h) (Homo sapiens, UniProt P43403); test: Isolated kinase activity, ZAP-70; type: biochemical; conditions: @ 10 μM
# Fyn(h) = Fyn(h) (Homo sapiens, UniProt P06241); test: Isolated kinase activity, Fyn; type: biochemical; conditions: @ 10 μM
# [3] = tested on: EGFR tyrosine kinase (EGF Y845); test: EGFR tyrosine kinase autophosphorylation in whole cells; type: cell-based
# Procedure: as §1
# This site is not a direct Src phosphorylation site.
# PDGFRβ(h) = PDGFRβ(h) (Homo sapiens, UniProt P09619); test: Isolated kinase activity, PDGFRβ; type: biochemical; conditions: @ 10 μM
# PDGFRβ(h), sequence (P09619 33-1106): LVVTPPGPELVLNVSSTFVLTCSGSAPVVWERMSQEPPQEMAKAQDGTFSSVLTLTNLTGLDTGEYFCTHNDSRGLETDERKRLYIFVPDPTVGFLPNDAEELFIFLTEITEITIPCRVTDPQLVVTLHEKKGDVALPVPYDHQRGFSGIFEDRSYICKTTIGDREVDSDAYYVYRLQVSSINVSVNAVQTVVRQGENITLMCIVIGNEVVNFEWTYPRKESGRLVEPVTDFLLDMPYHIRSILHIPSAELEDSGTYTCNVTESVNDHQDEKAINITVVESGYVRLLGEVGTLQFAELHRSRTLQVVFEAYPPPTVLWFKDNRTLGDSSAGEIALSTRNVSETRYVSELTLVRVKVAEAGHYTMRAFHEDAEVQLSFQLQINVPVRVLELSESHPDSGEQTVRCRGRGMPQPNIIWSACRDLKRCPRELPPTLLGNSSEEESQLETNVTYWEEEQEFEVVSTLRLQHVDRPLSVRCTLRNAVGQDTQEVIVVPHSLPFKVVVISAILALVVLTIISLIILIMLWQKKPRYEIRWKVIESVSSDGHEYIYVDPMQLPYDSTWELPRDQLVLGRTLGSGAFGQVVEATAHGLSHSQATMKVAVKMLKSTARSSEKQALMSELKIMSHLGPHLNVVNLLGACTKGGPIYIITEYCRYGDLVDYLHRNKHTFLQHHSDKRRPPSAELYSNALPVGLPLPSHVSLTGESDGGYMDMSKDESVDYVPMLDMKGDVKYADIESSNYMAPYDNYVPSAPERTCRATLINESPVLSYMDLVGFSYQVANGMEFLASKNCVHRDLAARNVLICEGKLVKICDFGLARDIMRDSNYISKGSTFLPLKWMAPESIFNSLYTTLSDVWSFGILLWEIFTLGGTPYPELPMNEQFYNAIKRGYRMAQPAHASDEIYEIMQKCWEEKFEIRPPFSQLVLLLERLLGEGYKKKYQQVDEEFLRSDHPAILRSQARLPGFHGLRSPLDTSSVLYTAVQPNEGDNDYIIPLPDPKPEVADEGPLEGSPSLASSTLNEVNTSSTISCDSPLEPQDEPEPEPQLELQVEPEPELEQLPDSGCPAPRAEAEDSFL
# A549 cells = test: Cell growth inhibition (BrdU assay), A549; type: cell-based, human; conditions: A549 (Lung); Drug 1 = Tarceva
# Procedure: (§6) Cell lines being evaluated are: SKOV-2, K562, HT-29, A549, and MDA231. […] Except MDA231, this line is grown at 37° C. and 0% CO2.
# (§7) Except MDA231, this line is grown at 37° C. and 0% CO2. Brdu assay was performed at T=0 and T=72.
# (§8) Growth Inhibition. The BrdU data was used to determine the % growth inhibition for each sample concentration using the formula:
# (§9) where T0=Fluorescence of cells at time 0; T1=Fluorescence of treated cells at x hours; Con=Fluorescence of control cells at x hours. T1 values T0 values were designated as T, cytotoxicity. The GI50 was estimated using XLFit excluding T1 values T0 (cytotoxicity).
# SKOV-3 cells = test: Cell growth inhibition (BrdU assay), SKOV-3; conditions: SKOV-3 (Ovarian); Drug 1 = taxol
# Procedure: as §6, §7, §8, §9
# L3.6pl cell line = test: Cell growth inhibition (BrdU assay), L3.6pl; type: cell-based, human
# Text: L3.6pl cells are previously described in Trevino et al. Am J. Pathol.
# HBV = HBV primary assay (HepG2-2.2.15 antiviral assay); type: cell-based; conditions: Hepatitis B virus, Test Concentration 10 μM, read-out: Antiviral Activity Percent inhibition of cell control
# Procedure: The HBV primary assay developed was conducted similarly to that described by Korba et al., (Antiviral Res. 15: 217-228 (1991) and Antiviral Res. 19: 55-70 (1992)) with the exception that viral DNA detection and quantification have been improved and simplified (Korba et al., Antiviral Res. 19: 55-70 (1992)).
# The HepG2-2.2.15 is a stable cell line producing high levels of the wild-type aywl strain of HBV. Briefly, HepG2-2.2.15 cells were plated in 96-well plates. Only the interior wells were utilized to reduce “edge effects” observed during cell culture; the exterior wells are filled with complete medium to help minimize sample evaporation. […] Six days following the initial administration of the test compound, the cell culture supernatant was collected, treated with pronase and DNAse and then used in a real-time quantitative TaqMan PCR assay for direct measurement of HBV DNA copies using an ABI Prism 7900 sequence detection system (Applied Biosystems, Foster City, Calif.).
# The antiviral activity of each test compound was calculated by comparing its HBV DNA copies against that of the untreated control cells (100%) to derive percent inhibition level. […] Cytotoxicity of the compound was determined by comparing its cell viability with that of the untreated cell control to derive percentage of the cell control.
compound,measurement,setting,value
Cc1nc(Nc2ncc(C(=O)Nc3c(C)cccc3Cl)s2)cc(N2CCN(CCO)CC2)n1 [Dasatinib],IC50,H460 cells,0.09 µM
same,GI50,Jurkat cells,0.008 µM
same,body weight,[1],weight loss
COc1cc2c(Nc3c(Cl)ccc4c3OCO4)ncnc2cc1OCCCN1CCCCC1 [KX2-328],percent activity of isolated kinase relative to control (untreated),Lck(h),1%
same,IC50,isolated Src,0.008 µM
same,fold less potent against cell growth than against isolated Src,isolated Src,10-100 ×
same,percent activity of isolated kinase relative to control (untreated),IR(h),125%
same,percent activity of isolated kinase relative to control (untreated),FGFR2(h),94%
same,FAK autophosphorylation (Y397),FAK Y397,some inhibition
same,percent activity of isolated kinase relative to control (untreated),Abl(h),1%
same,percent activity of isolated kinase relative to control (untreated),IGF-1R(h),110%
same,percent activity of isolated kinase relative to control (untreated),PKCα(h),111%
same,IC50,isolated FAK,> 0.5 µM
same,fold less potent against isolated FAK (than isolated Src),isolated FAK,≥ 100 ×
same,GI50,"HT29 cell line; Homo sapiens, HT-29, HT29 (Colon), read-out: GI50",0.647 µM
same,GI50,"HT29 cell line; Homo sapiens, HT-29, HT29, read-out: GI50",0.794 µM
same,GI50,"HT29 cell line; Homo sapiens, HT-29, NCI human colon cancer cell line HT29",0.794 µM
same,activity at 0.05 µM,"HT29 cell line; Homo sapiens, HT-29, 50 nM, read-out: HT-29 Growth, % of Control, Mean, n = 3",73%
same,activity at 0.5 µM,"HT29 cell line; Homo sapiens, HT-29, 500 nM, read-out: HT-29 Growth, % of Control, Mean, n = 3",10%
same,activity at 5 µM,"HT29 cell line; Homo sapiens, HT-29, 5 uM, read-out: HT-29 Growth, % of Control, Mean, n = 3",< 0%
same,GI50,"c-Src527F/NIH3T3 cells; NIH3T3, c-Src 3T3",0.099 µM
same,GI50,"c-Src527F/NIH3T3 cells; NIH3T3, c-Src527F/NIH3T3",0.087 µM
same,GI50,"c-Src527F/NIH3T3 cells; NIH3T3, c-Src/NIH-3T3 engineered cell line",0.099 µM
same,activity at 0.1 µM,"c-Src527F/NIH3T3 cells; NIH3T3, 100 nM, read-out: c-Src 3T3 Growth, % of Control, Mean, n = 3",13%
same,activity at 1 µM,"c-Src527F/NIH3T3 cells; NIH3T3, 1.0 uM, read-out: c-Src 3T3 Growth, % of Control, Mean, n = 3",< 0%
same,activity at 10 µM,"c-Src527F/NIH3T3 cells; NIH3T3, 10 uM, read-out: c-Src 3T3 Growth, % of Control, Mean, n = 3",< 0%
same,percent activity of isolated kinase relative to control (untreated),Pyk2(h),43%
same,percent activity of isolated kinase relative to control (untreated),Yes(h),1%
same,percent activity of isolated kinase relative to control (untreated),MAPK2(h),105%
same,PDGF receptor autophosphorylation (Y572/574),[2],dose response reduction
same,percent activity of isolated kinase relative to control (untreated),PI3 kinase,99%
same,percent activity of isolated kinase relative to control (untreated),Lyn(h),0%
same,percent activity of isolated kinase relative to control (untreated),EGFR(h),3%
same,induction of apoptosis (Caspase-3 cleavage),Caspase-3 cleavage,not effective in inducing apoptosis
same,phosphorylation of Paxillin Y-31 (Src transphosphorylation substrate),Src; c-Src527F/NIH-3T3 cells,inhibited Src trans-phosphorylation
same,phosphorylation of FAK Tyr 925 (Src transphosphorylation substrate),Src; whole cells,inhibited Src trans-phosphorylation
same,phosphorylation of Shc Y239/240 (Src transphosphorylation substrate),Src; whole cells,inhibited Src trans-phosphorylation
same,total phosphotyrosine levels,total phosphotyrosine,reduction in the total phosphotyrosine levels
same,percent activity of isolated kinase relative to control (untreated),ZAP-70(h),97%
same,percent activity of isolated kinase relative to control (untreated),Fyn(h),2%
same,EGFR tyrosine kinase autophosphorylation,[3],potently inhibits
same,percent activity of isolated kinase relative to control (untreated),PDGFRβ(h),98%
C#Cc1cccc(Nc2ncnc3cc(OCCOC)c(OCCOC)cc23)c1 [Tarceva],Drug 1:compound (I) GI50 ratio,A549 cells,134
CC(=O)O[C@H]1C(=O)[C@@]2(C)[C@H]([C@H](OC(=O)c3ccccc3)[C@]3(O)C[C@H](OC(=O)[C@H](O)[C@@H](NC(=O)c4ccccc4)c4ccccc4)C(C)=C1C3(C)C)[C@]1(OC(C)=O)CO[C@@H]1C[C@@H]2O [taxol],Drug 1:compound (I) GI50 ratio,SKOV-3 cells,0.40
O=C1[O][Pt]2([NH][C@@H]3CCCC[C@H]3[NH]2)[O]C1=O [oxaliplatin],Drug 1:compound (I) GI50 ratio,"HT29 cell line; HT29 (Colon), Drug 1 = oxaliplatin",59
"Nc1ccn([C@@H]2O[C@H](CO)[C@@H](O)C2(F)F)c(=O)n1 [Gemcitabine, gemcitabine]",GI50,"L3.6pl cell line; Homo sapiens, L3.6pl, BrdU, T=72, read-out: GI50, Single",0.00176 µM
same,Drug 1:compound (I) GI50 ratio,"L3.6pl cell line; L3.6pl (Pancreas), Drug 1 = Gemcitabine",1/13
"O=C(Cc1ccc(-c2ccc(OCCN3CCOCC3)cc2)cn1)NCc1ccccc1 [Compound (I): 2HCl, 2-(5-(4-(2-morpholinoethoxy)phenyl)pyridin-2-yl)-N-benzylacetamide dihydrochloride salt]",inhibition at 10 µM,HBV,48.2%
